Experimental data as given in patent publication US8647867B2, “Cell cultivation method and cell culture” (National University Corportion Okayama University, priority 2005, dated 2014).

What was measured:
Assay type in all cases: cell-based
porcine hepatocyte [1] = experiment: Morphological study of cultured porcine hepatocyte by phase-contrast and electron microscope
Protocol: Recently, it has been known that when three-dimensional culture of cells is performed on scaffold, cell functions are improved and maintained. […]

porcine pancreatic islet [2] = experiment: Morphological study of cultured porcine pancreatic islet by electron microscope (morphological criteria, points); conditions: porcine pancreatic islets, day 5 of culture
Protocol: (§1) As the inspection method of cultured pancreatic islets, a method is mentioned in which the following 4 items as morphological criteria are evaluated at 5 levels (1 to 5 points) (see, literature: Matsumoto S, Qualley S A, Goel S, et al., Effect of the two-layer (University of Wisconsin solution-Perfluorochemical plus 02) method of pancreas preservation on human islet isolation as assessed by Edmonton isolation protocol. Transplantation 2002; 74: 1414).
(§2) Evaluation is performed at 5 levels of “flat: 1 point”, “approximately flat: 2 points”, “irregularly spherical: 3 points”, “approximately spherical: 4 points”, and “spherical: 5 points”.
(§3) Evaluation is performed at 5 levels of “irregular: 1 point”, “approximately irregular: 2 points”, “somewhat well-rounded: 3 points”, “approximately well-rounded: 4 points”, and “well-rounded: 5 points”. Among these, “well-rounded: 5 points” is most preferable.
(§4) Evaluation is performed at 5 levels of “fragmented: 1 point”, “approximately fragmented: 2 points”, “somewhat solid/compact: 3 points”, “approximately solid/compact: 4 points”, and “solid/compact: 5 points”. Among these, “solid/compact: 5 points” is most preferable.
Evaluation is performed at 5 levels of “smaller than 100 μm for individual cultured pancreatic islets (all <100 μm): 1 point”, “100 to 150 μm for individual cultured pancreatic islets: 2 points”, “[…] for individual cultured pancreatic islets: 3 points”, “150 to 200 μm for individual cultured pancreatic islets: 4 points”, and “larger than 200 μm for at least 10% of individual cultured pancreatic islets (>10%>200 μm): 5 points”. Among these, “larger than 200 μm for at least 10% of individual cultured pancreatic islets: 5 points” is most preferable.
In the above-described criteria, the shape “flat” means that when a pancreatic islet is considered to be elliptic sphere, the ratio of major axis/minor axis is at least 10, the shape “approximately flat” means that the above-described ratio of major axis/minor axis is at least 5 and less than 10, the shape “irregularly spherical” means that the above-described ratio of major axis/minor axis is at least 2 and less than 5, the shape “approximately spherical” means that the above-described ratio of major axis/minor axis is at least 1.2 and less than 2, and the shape “spherical” means that the above-described ratio of major axis/minor axis is less than 1.2. […]

human pancreatic islet = experiment: Morphological study of cultured human pancreatic islet by electron microscope (morphological criteria, points); conditions: human pancreatic islets, day 5 of culture
Protocol: as §1, §2, §3, §4
Evaluation is performed at 5 levels of “smaller than 100 μm for individual cultured pancreatic islets (all <100 μm): 1 point”, “100 to 150 μm for individual cultured pancreatic islets: 2 points”, “[…] for individual cultured pancreatic islets: 3 points”, “150 to 200 μm for individual cultured pancreatic islets: 4 points”, and “larger than 200 μm for at least 10% of individual cultured pancreatic islets (>10%>200 μm): 5 points”. Among these, “larger than 200 μm for at least 10% of individual cultured pancreatic islets: 5 points” is most preferable. […]

porcine hepatocyte [3] = experiment: Metabolic ability of lidocaine in cultured porcine hepatocyte; parameters: lidocaine metabolic rate: unit not given beside the values; conditions: for lidocaine metabolic rate: lidocaine 1 mg/ml, after 24 hours
porcine hepatocyte [4] = experiment: Viability of porcine hepatocyte (live/dead test); conditions: culture without insert, days 1, 7 and 14 of culture
Description: Therefore, it was clarified that it is more suitable for culture of porcine hepatocyte to use PuraMatrix of SEQ ID NO:1 Since the appended Photographs are converted into white and black two tones, dyed colors are not expressed.

porcine pancreatic islet [5] = experiment: Insulin production ability of cultured porcine pancreatic islet
Protocol: A process of isolation of porcine pancreatic islet was carried out according to the method for isolation of human pancreatic islet (see, Lakey J R T, Kobayashi N, Shapiro A M J, Ricordi C, Okitsu T: Current human islet isolation protocol. Medical Review Co., Ltd., Osaka, Japan, 2004), and followed a method in a published literature (Yonekawa Y, Matsumono S, Okitsu T, Arata T, Iwanaga Y, Noguchi H, Nagata H, O'Neil J J, Tanaka K: Effective islet isolation method with extremely high islet yields from adult pigs. Cell Transplant. 14(10): 757-62, 2005). Those skilled in the art are capable of isolating pancreatic islet by referring to this literature.
Insulin production abilities of cultured porcine pancreatic islet were determined and compared between groups A and B. Using low glucose DMEM (glucose concentration: […]) (available from 25 GIBCO, Oakland, N.J.) supplemented with 10% FCS, nicotineamide 10 mM and penicillin G/streptomycin, cells were cultured for 24 hours until 60% confluency (low glucose). Then, the medium was changed for high glucose DMEM (glucose concentration: […]) (available from GIBCO, Oakland, N.J.) supplemented with 10% FCS, nicotineamide 10 mM and penicillin G/streptomycin, and cells were cultured for 6 hours (high glucose). After high glucose culture, the medium was exchanged for low glucose DMEM and cells were cultured for 6 hours (low glucose (after)). After each culture operation, the production amount of insulin in the culture medium (μg/l) was determined by an immunostaining method using a rabbit anti-human insulin antibody (available from DakoCytomation K. K., Kyoto, Japan).

[6] = porcine hepatocyte, culture without insert, days 1, 7 and 14

Compound: CC(=O)N[C@@H](CCCNC(=N)N)C(=O)N[C@@H](C)C(=O)N[C@@H](CC(=O)O)C(=O)N[C@@H](C)C(=O)N[C@@H](CCCNC(=N)N)C(=O)N[C@@H](C)C(=O)N[C@@H](CC(=O)O)C(=O)N[C@@H](C)C(=O)N[C@@H](CCCNC(=N)N)C(=O)N[C@@H](C)C(=O)N[C@@H](CC(=O)O)C(=O)N[C@@H](C)C(=O)N[C@@H](CCCNC(=N)N)C(=O)N[C@@H](C)C(=O)N[C@@H](CC(=O)O)C(=O)N[C@@H](C)C(N)=O [Group A, Ac-(RADA)4-CONH2]
- formation of cell adhesion apparatus and bile canaliculi between hepatocytes (porcine hepatocyte [1]; culture with insert, day 3 of culture, transmission electron microscope): a cell adhesion apparatus 5 and a bile canaliculi 6 were formed between hepatocytes
- formation of three-dimensional spheroid by hepatocytes (porcine hepatocyte [1]; culture without insert, phase-contrast microscope days 1, 7, 14, electron microscope day 5): formation of three-dimensional spheroid by hepatocytes was confirmed
- pancreatic islet morphology: 1. shape (porcine pancreatic islet [2]): 5 (spherical: 5 points)
- pancreatic islet morphology: 2. border shape (porcine pancreatic islet [2]): 5 (well-rounded: 5 points)
- pancreatic islet morphology: 3. integrity (porcine pancreatic islet [2]): 5 (solid/compact: 5 points)
- pancreatic islet morphology: sum of the evaluation values (porcine pancreatic islet [2]): 18 points
- pancreatic islet morphology: 1. shape (human pancreatic islet): 5 (spherical: 5 points)
- pancreatic islet morphology: 3. integrity (human pancreatic islet): 5 (solid/compact: 5 points)
- pancreatic islet morphology: sum of the evaluation values (human pancreatic islet): 16 points
- lidocaine metabolic rate (porcine hepatocyte [3]; Table 2(a), culture without insert, day 1 of culture): 40.0
- lidocaine metabolic rate (porcine hepatocyte [3]; Table 2(a), culture without insert, day 7 of culture): 31.9
- lidocaine metabolic rate (porcine hepatocyte [3]; Table 2(a), culture without insert, day 14 of culture): 19.1
- lidocaine metabolic rate (porcine hepatocyte [3]; Table 2(c), culture with insert, day 1 of culture): 44.0
- lidocaine metabolic rate (porcine hepatocyte [3]; Table 2(c), culture with insert, day 7 of culture): 36.9
- lidocaine metabolic rate (porcine hepatocyte [3]; Table 2(c), culture with insert, day 14 of culture): 32.4
- lidocaine metabolic rate (porcine hepatocyte [3]; Table 2(c), culture with insert, day 21 of culture): 30.2
- lidocaine metabolic rate (porcine hepatocyte [3]; Table 2b, culture without insert, day 1 of culture): 40.8
- lidocaine metabolic rate (porcine hepatocyte [3]; Table 2b, culture without insert, day 7 of culture): 32.2
- lidocaine metabolic rate (porcine hepatocyte [3]; Table 2b, culture without insert, day 14 of culture): 21.0
- lidocaine metabolic rate as compared with collagen type I (monolayer) (group B), Matrigel (group C) and collagen sandwich (group D) (porcine hepatocyte [3]; porcine hepatocyte, culture with insert, days 1, 7, 14 and 21): significantly better
- lidocaine metabolic rate as compared with collagen type I (monolayer) (group B) (porcine hepatocyte [3]; [6]): significantly better
- lidocaine metabolic rate as compared with collagen type I (monolayer) (group B) and Matrigel (group C) (porcine hepatocyte [3]; [6]): significantly better
- viability of porcine hepatocytes (live cells green, dead cells red) (porcine hepatocyte [4]): most cells exhibited a green color
- production amount of insulin in the culture medium (porcine pancreatic islet [5]; porcine islets (10 seeded), day 0 of culture, low glucose (100 g/l, 24 hours)): 0.80 µg/L
- production amount of insulin in the culture medium (porcine pancreatic islet [5]; porcine islets, day 0 of culture, high glucose (450 g/l, 6 hours)): 1.62 µg/L
- production amount of insulin in the culture medium (porcine pancreatic islet [5]; porcine islets, day 0 of culture, low glucose (after), 6 hours): 1.01 µg/L
- production amount of insulin in the culture medium (porcine pancreatic islet [5]; porcine islets, day 3 of culture, high glucose (450 g/l, 6 hours)): 1.48 µg/L
- production amount of insulin in the culture medium (porcine pancreatic islet [5]; porcine islets, day 3 of culture, low glucose (100 g/l, 24 hours)): 0.80 µg/L
- production amount of insulin in the culture medium (porcine pancreatic islet [5]; porcine islets, day 3 of culture, low glucose (after), 6 hours): 0.90 µg/L
- production amount of insulin in the culture medium (porcine pancreatic islet [5]; porcine islets, day 5 of culture, high glucose (450 g/l, 6 hours)): 1.24 µg/L
- production amount of insulin in the culture medium (porcine pancreatic islet [5]; porcine islets, day 5 of culture, low glucose (100 g/l, 24 hours)): 0.69 µg/L
- production amount of insulin in the culture medium (porcine pancreatic islet [5]; porcine islets, day 5 of culture, low glucose (after), 6 hours): 0.78 µg/L
- production amount of insulin in the culture medium (porcine pancreatic islet [5]; porcine islets, day 7 of culture, high glucose (450 g/l, 6 hours)): 0.90 µg/L
- production amount of insulin in the culture medium (porcine pancreatic islet [5]; porcine islets, day 7 of culture, low glucose (100 g/l, 24 hours)): 0.49 µg/L
- production amount of insulin in the culture medium (porcine pancreatic islet [5]; porcine islets, day 7 of culture, low glucose (after), 6 hours): 0.71 µg/L
- amount of insulin secreted in high glucose concentration (response to glucose concentration) (porcine pancreatic islet [5]; porcine pancreatic islet, day 5 of culture): increased
